Data on 29 molecules can be found in patent US10829501B2 (BRISTOL-MYERS SQUIBB COMPANY, priority 2016, dated 2020).

Structures are written as SMILES. Counter-ions that a name gives are not always drawn. A value given as a limit tells only on which side of the number the result lay.

The target in one assay is ROCK2 (Homo sapiens, UniProt O75116). Nature of the assay: ROCK2 kinase inhibition assay (LABCHIP 3000 Reader, FITC peptide substrate).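 Note: rho kinase reaction read by separating phosphorylated from unphosphorylated peptide on chip, with inhibition of kinase activity computed per concentration across a dose-response series.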
Sequence of ROCK2 (O75116 whole entry, species assumed): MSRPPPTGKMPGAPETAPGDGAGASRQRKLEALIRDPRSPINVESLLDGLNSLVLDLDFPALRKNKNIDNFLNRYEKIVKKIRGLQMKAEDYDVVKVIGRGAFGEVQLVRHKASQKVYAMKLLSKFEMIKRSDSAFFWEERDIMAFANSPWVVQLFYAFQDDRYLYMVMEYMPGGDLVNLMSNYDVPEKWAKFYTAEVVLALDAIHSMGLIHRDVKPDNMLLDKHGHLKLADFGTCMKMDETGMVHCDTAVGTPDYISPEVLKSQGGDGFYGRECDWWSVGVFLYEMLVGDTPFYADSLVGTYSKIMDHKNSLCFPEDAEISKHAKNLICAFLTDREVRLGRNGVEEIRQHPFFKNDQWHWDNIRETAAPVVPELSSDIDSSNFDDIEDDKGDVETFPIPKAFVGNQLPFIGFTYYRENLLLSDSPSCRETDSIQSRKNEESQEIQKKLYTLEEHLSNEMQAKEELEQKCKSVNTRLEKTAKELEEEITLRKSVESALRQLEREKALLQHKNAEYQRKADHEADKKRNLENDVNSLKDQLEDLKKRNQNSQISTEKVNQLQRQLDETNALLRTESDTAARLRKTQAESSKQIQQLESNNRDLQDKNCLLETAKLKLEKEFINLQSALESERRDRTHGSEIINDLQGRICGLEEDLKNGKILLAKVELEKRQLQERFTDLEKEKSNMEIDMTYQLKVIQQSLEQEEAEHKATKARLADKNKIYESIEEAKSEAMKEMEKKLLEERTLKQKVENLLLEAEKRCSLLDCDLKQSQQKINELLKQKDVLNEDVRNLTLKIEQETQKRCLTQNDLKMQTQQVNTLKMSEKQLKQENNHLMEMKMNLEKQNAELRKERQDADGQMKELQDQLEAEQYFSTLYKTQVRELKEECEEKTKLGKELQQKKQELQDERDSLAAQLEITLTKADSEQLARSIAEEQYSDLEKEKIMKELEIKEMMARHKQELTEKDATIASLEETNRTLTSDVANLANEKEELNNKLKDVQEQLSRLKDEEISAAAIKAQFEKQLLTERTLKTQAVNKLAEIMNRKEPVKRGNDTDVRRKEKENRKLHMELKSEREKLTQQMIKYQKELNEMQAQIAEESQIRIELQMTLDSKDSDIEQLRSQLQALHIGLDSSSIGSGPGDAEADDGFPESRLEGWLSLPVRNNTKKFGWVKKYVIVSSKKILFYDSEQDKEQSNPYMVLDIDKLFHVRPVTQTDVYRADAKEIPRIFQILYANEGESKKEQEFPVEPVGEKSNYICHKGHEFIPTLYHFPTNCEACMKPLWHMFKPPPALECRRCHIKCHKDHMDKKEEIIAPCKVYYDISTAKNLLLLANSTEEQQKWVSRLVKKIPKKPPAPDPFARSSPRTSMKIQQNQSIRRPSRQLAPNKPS
Conditions: not given
For orientation: IC50 means the concentration that inhibits the measured activity by half. For the molecule `CC(C)(O)COc1ccc2c(C(=O)NC3CC4(C3)CC(Oc3cc(-n5cccn5)ccc3C(N)=O)C4)cnn2c1` (centres unmarked) [Example 223, N-(6-(2-carbamoyl-5-(1H-pyrazol-1-yl)phenoxy)spiro[3.3]heptan-2-yl)-6-(2-hydroxy-2-methylpropoxy)pyrazolo[1,5-a]pyridine-3-carboxamide], the concentration for half-maximal inhibition (IC50) was 5 to 50 nM.
Regarding `NC(=O)c1cccnc1O[C@H]1CC2(C[C@H](NC(=O)c3cnc4cnccn34)C2)C1` (stereo partly drawn) [Example 345, N-((aR)-6-((3-carbamoylpyridin-2-yl)oxy)spiro[3.3]heptan-2-yl)imidazo[1,2-a]pyrazine-3-carboxamide], the 50% inhibitory concentration (IC50) lay in the range of 250 to 2500 nM.
Regarding `CC(C)(O)COc1ccc2c(C(=O)NC3CC4(C3)CC(Oc3cc(-c5cccc(S(N)(=O)=O)c5)ccc3C(N)=O)C4)cnn2c1` (centres unmarked) [Example 298, N-(6-((4-carbamoyl-3′-sulfamoyl-[1,1′-biphenyl]-3-yl)oxy)spiro[3.3]heptan-2-yl)-6-(2-hydroxy-2-methylpropoxy)pyrazolo[1,5-a]pyridine-3-carboxamide], the IC50 is under 5 nM.
On to `Cn1nc(C(=O)N[C@H]2CC3(C2)C[C@H](Oc2ncccc2C(N)=O)C3)cc1OCC(F)F` (stereo partly drawn) [Example 95, 2-((aR)-6-(5-(2,2-difluoroethoxy)-1-methyl-1H-pyrazole-3-carboxamido)spiro-[3.3]heptan-2-yl)oxy) nicotinamide, trifluoroacetate], for which the half-inhibitory concentration (IC50) is 50 to 250 nM.
The molecule `N#Cc1cccc(C(=O)N[C@H]2CC3(C2)C[C@H](Oc2ncccc2C(N)=O)C3)c1` (stereo partly drawn) [Example 158, 2-(((aR)-6-(3-cyanobenzamido)spiro[3.3]heptan-2-yl)oxy) nicotinamide] returned a concentration for half-maximal inhibition (IC50) of 50 to 250 nM.
In the case of `NC(=O)c1cccnc1O[C@H]1CC2(C[C@H](NC(=O)c3nc(-c4ccccn4)cs3)C2)C1` (stereo partly drawn) [Example 145, N-((aR)-6-((3-carbamoylpyridin-2-yl)oxy)spiro[3.3]heptan-2-yl)-4-(pyridin-2-yl) thiazole-2-carboxamide, trifluoroacetate], the 50% inhibitory concentration (IC50) lay within 250 to 2500 nM.
`CC(C)(O)COc1ccc2c(C(=O)NC3CC4(C3)CC(Oc3cc(N5CCCC5)ccc3C(N)=O)C4)cnn2c1` (centres unmarked) [Example 227, N-(6-(2-carbamoyl-5-(pyrrolidin-1-yl)phenoxy)spiro[3.3]heptan-2-yl)-6-(2-hydroxy-2-methylpropoxy)pyrazolo[1,5-a]pyridine-3-carboxamide] came in with a 50% inhibitory concentration (IC50) of 5 to 50 nM.
`NC(=O)c1cccnc1O[C@H]1CC2(C[C@H](NC(=O)c3cnn4cc(OCCCN5CCCC5=O)ccc34)C2)C1` (stereo partly drawn) [Example 124, N-((aR)-6-((3-carbamoylpyridin-2-yl)oxy)spiro[3.3]heptan-2-yl)-6-(3-(2-oxopyrrolidin-1-yl)propoxy) pyrazolo[1,5-a]pyridine-3-carboxamide, trifluoroacetate]: the half-maximal inhibitory concentration (IC50) fell in the range of 5 to 50 nM.
As to `CC(C)(O)COc1ccc2c(C(=O)NC3CC4(C3)CC(Oc3cc(-c5cccc(C(N)C(=O)O)c5)ccc3C(N)=O)C4)cnn2c1` (centres unmarked) [Example 257, 2-amino-2-(4′-carbamoyl-3′-((6-(6-(2-hydroxy-2-methylpropoxy)pyrazolo[1,5-a]pyridine-3-carboxamido)spiro[3.3]heptan-2-yl)oxy)-[1,1′-biphenyl]-3-yl)acetic Acid], the IC50 was 5 to 50 nM.
On to `Cc1nc2cc(-c3cc(C#N)cc(C(=O)N[C@H]4CC5(C4)C[C@H](Oc4ncccc4C(N)=O)C5)c3)ccc2s1` (stereo partly drawn) [Example 186, 2-(((aR)-6-(3-cyano-5-(2-methylbenzo[d]thiazol-5-yl)benzamido)spiro[3.3]heptan-2-yl)oxy)nicotinamide, trifluoroacetate], for which the IC50 was under 5 nM.
On to `Cn1cc(-c2ccc(C(N)=O)c(OC3CC4(CC(NC(=O)c5cnn6cc(OCC(C)(C)O)ccc56)C4)C3)c2)cn1` (centres unmarked) [Example 275, N-(6-(2-carbamoyl-5-(1-methyl-1H-pyrazol-4-yl)phenoxy)spiro[3.3]heptan-2-yl)-6-(2-hydroxy-2-methylpropoxy)pyrazolo[1,5-a]pyridine-3-carboxamide], for which the IC50 was in the range of 5 to 50 nM.
Same read-out and setting: to `NC(=O)c1ccccc1O[C@H]1CC2(C[C@H](NC(=O)c3cnn4ccc(OCCN5CCOCC5)cc34)C2)C1` (stereo partly drawn) [Example 20, N-[(aR)-6-(2-carbamoylphenoxy)spiro[3.3]heptan-2-yl]-5-[2-(morpholin-4-yl)ethoxy]pyrazolo[1,5-a]pyridine-3-carboxamide] belongs 5 to 50 nM.
`CS(=O)(=O)CCCOc1ccc2c(C(=O)NC3CC4(C3)CC(Oc3ccccc3C(N)=O)C4)cnn2c1C1CC1` [Example 30, N-[(aR)-6-(2-carbamoylphenoxy)spiro [3.3]heptan-2-yl]-7-cyclopropyl-6-(3-methanesulfonylpropoxy) pyrazolo[1,5-a] pyridine-3-carboxamide] yielded an IC50 of under 5 nM.
`N#Cc1cccc(-c2ccc(C(=O)N[C@H]3CC4(C3)C[C@H](Oc3ncccc3C(N)=O)C4)cc2)c1` (stereo partly drawn) [Example 160, 2-(((aR)-6-(3′-cyano-[1,1′-biphenyl]-4-ylcarboxamido)spiro[3.3]heptan-2-yl)oxy) nicotinamide] returned an IC50 of 50 to 250 nM.
In turn, `NC(=O)c1cccnc1O[C@H]1CC2(C[C@H](NC(=O)c3cnn4cc(OCCOC(F)(F)F)ccc34)C2)C1` (stereo partly drawn) [Example 125, N-((aR)-6-((3-carbamoylpyridin-2-yl)oxy)spiro[3.3]heptan-2-yl)-6-(2-(trifluoromethoxy)ethoxy) pyrazolo[1,5-a] pyridine-3-carboxamide, t rifluoroacetate] had an IC50 of 5 to 50 nM.
On the same count and under the same terms, to `Cc1nc(-c2ccccc2)sc1C(=O)N[C@H]1CC2(C1)C[C@H](Oc1ncccc1C(N)=O)C2` (stereo partly drawn) [Example 96, N-((aR)-6-((3-carbamoylpyridin-2-yl)oxy)spiro[3.3]heptan-2-yl)-4-methyl-2-phenylthiazole-5-carboxamide, trifluoroacetate] belongs 50 to 250 nM; to `NC(=O)c1ccccc1O[C@H]1CC2(C[C@H](NC(=O)c3cnn4c(C5CC5)c(OCCO)ccc34)C2)C1` (stereo partly drawn) [Example 31, N-[(aR)-6-(2-carbamoylphenoxy)spiro [3.3]heptan-2-yl]-7-cyclopropyl-6-(2-hydroxyethoxy)pyrazolo[1,5-a]pyridine-3-carboxamide], 5 to 50 nM.
Still for that read-out and setting: the figure for `CC(C)(O)COc1ccc2c(C(=O)N[C@H]3CC4(C3)C[C@H](Oc3ncccc3C(N)=O)C4)nn(C(C)(C)C(N)=O)c2c1` (stereo partly drawn) [Example 412, 1-(1-amino-2-methyl-1-oxopropan-2-yl)-N-((aR)-6-((3-carbamoylpyridin-2-yl)oxy)spiro[3.3]heptan-2-yl)-6-(2-hydroxy-2-methylpropoxy)-1H-indazole-3-carboxamide, TFA] is 5 to 50 nM; for `Cn1nc(-c2ccccc2)cc1C(=O)N[C@H]1CC2(C1)C[C@H](Oc1ncccc1C(N)=O)C2` (stereo partly drawn) [Example 89, 2-((aR)-6-(1-methyl-3-phenyl-1H-pyrazole-5-carboxamido)spiro[3.3]heptan-2-yl)oxy) nicotinamide, trifluoroacetate] it is 250 to 2500 nM.
Consider `[H][C@]1(Oc2ncccc2C(N)=O)C[C@@]2(C[C@H](NC(=O)c3cnn4cc(-c5ccc(=O)n(C)c5)ccc34)C2)C1` (stereo partly drawn) [Example 371, N-((aR)-6-((3-carbamoylpyridin-2-yl)oxy)spiro[3.3]heptan-2-yl)-6-(1-methyl-6-oxo-1,6-dihydropyridin-3-yl)pyrazolo[1,5-a]pyridine-3-carboxamide], for which the half-maximal inhibitory concentration (IC50) lay within 5 to 50 nM.
Still for that read-out and setting: to `[H][C@]1(Oc2ncccc2C(N)=O)C[C@@]2(C[C@H](NC(=O)c3nnn4cc(Br)ccc34)C2)C1` (stereo partly drawn) [Example 368, 6-bromo-N-((aR)-6-((3-carbamoylpyridin-2-yl)oxy)spiro[3.3]heptan-2-yl)-[1,2,3]triazolo[1,5-a]pyridine-3-carboxamide] belongs 5 to 50 nM; to `CC(C)(O)COc1ccc2c(C(=O)NC3CC4(C3)CC(Oc3cc(-c5cccc(CO)c5)ccc3C(N)=O)C4)cnn2c1` (centres unmarked) [Example 247, N-(6-((4-carbamoyl-3′-(hydroxymethyl)-[1,1′-biphenyl]-3-yl)oxy)spiro[3.3]heptan-2-yl)-6-(2-hydroxy-2-methylpropoxy)pyrazolo[1,5-a]pyridine-3-carboxamide], under 5 nM; to `COc1cccc(-n2cc(C(=O)NC3CC4(C3)CC(Oc3ncccc3C(N)=O)C4)cn2)c1` (centres unmarked) [Example 395], 5 to 50 nM.
The same measure, in the same setting: to `CC(C)(O)COc1ccc2c(C(=O)NC3CC4(C3)CC(Oc3ncccc3C(N)=O)C4)cnn2c1` (centres unmarked) [Example 6, N-(6-((3-carbamoylpyridin-2-yl)oxy)spiro[3.3]heptan-2-yl)-6-(2-hydroxy-2-methylpropoxy)pyrazolo[1,5-a]pyridine-3-carboxamide] belongs under 5 nM; to `[H][C@]1(Oc2ncccc2C(N)=O)C[C@@]2(C[C@H](NC(=O)c3cnc4cc(Cl)ccn34)C2)C1` (stereo partly drawn) [Example 361, N-((aR)-6-((3-carbamoylpyridin-2-yl)oxy)spiro[3.3]heptan-2-yl)-7-chloroimidazo[1,2-a]pyridine-3-carboxamide], 50 to 250 nM.

The same assay, now with this note: read-out: ROCK2 Activity (ROCK2 IC50); 5 μM ATP, 1.5 μM peptide substrate, pH 7.5.
As to `Cn1ncc2c(C(=O)NC3CC4(C3)CC(Oc3ncccc3C(N)=O)C4)cc(Br)cc21` [Example 425, 6-bromo-N-((aR)-6-((3-carbamoylpyridin-2-yl)oxy)spiro[3.3]heptan-2-yl)-1-methyl-1H-indazole-4-carboxamide], the concentration for half-maximal inhibition (IC50) fell in the range of 5 to 50 nM.
Regarding `NC(=O)c1cccnc1OC1CC2(CC(NC(=O)c3cc(C(F)(F)F)cc4c3NC(=O)OC4)C2)C1` [Example 426, N-((aR)-6-((3-carbamoylpyridin-2-yl)oxy)spiro[3.3]heptan-2-yl)-2-oxo-6-(trifluoromethyl)-1,4-dihydro-2H-benzo[d][1,3]oxazine-8-carboxamide], the half-inhibitory concentration (IC50) was 5 to 50 nM.
Same read-out and setting: to `Cc1nn(C)cc1-c1cc(C(=O)NC2CC3(C2)CC(Oc2ncccc2C(N)=O)C3)cc(C(F)(F)F)c1` [Example 448, 2-(((aR)-6-(3-(1,3-dimethyl-1H-pyrazol-4-yl)-5-(trifluoromethyl)benzamido)spiro[3.3]heptan-2-yl)oxy)nicotinamide] belongs under 5 nM; to `CC(C)(C#N)n1nc(C(=O)NC2CC3(C2)CC(Oc2ncccc2C(N)=O)C3)c2ccc(Br)cc21` [Example 403, 6-bromo-N-((aR)-6-((3-carbamoylpyridin-2-yl)oxy)spiro[3.3]heptan-2-yl)-1-(2-cyanopropan-2-yl)-1H-indazole-3-carboxamide, TFA], 5 to 50 nM.
